Data as given in ChEMBL document CHEMBL3885861, “Open TG-GATES”.

Species on record: Rattus norvegicus
Test: Open TG-GATES - Regimen: Single
Format: toxicity, organism-based, Sprague-Dawley
Parameters: regimen Single, gender Male, age 6 weeks
Details: in vivo, po, 0 mg/kg, route gavage, dose level Control; for APTT / Bas / Eos / Fbg / Hb / Ht / Lym / MCH / MCHC / MCV / Mono / Neu / PT / Plat / RBC / Ret / WBC: tissue Blood; for KIDNEY_L / KIDNEY_R / KIDNEY_TOTAL: tissue Kidney; for LIVER: tissue Liver; for A/G / ALP / ALT / AST / BUN / CRE / Ca / Cl / DBIL / GLC / IP / K / LDH / Na / PL / RALB / TBIL / TC / TG / TP / gamma-GTP: tissue Plasma

In the case of Cc1nnc2n1-c1ccc(Cl)cc1C(c1ccccc1Cl)=NC2 [TRIAZOLAM], the TERMINAL_BW (3 h) is reported as 194.1 g, the APTT (3 h) is reported as 20.7 s and the Bas (3 h) is reported as 0%. For the same compound, the Eos (3 h) was 0.8%, the Fbg (3 h) was 266.4 mg/dL and the Hb (3 h) was 13.6 g/dL. For the same compound, the Ht (3 h) was 41.4%, the Lym (3 h) was 76% and the MCH (3 h) was 21.2 pg. For the same compound, the MCHC (3 h) was 32.8%, the MCV (3 h) was 64.7 fL and the Mono (3 h) was 3%. It also gave a Neu (3 h) of 19.2%, a PT (3 h) of 13.6 s and a Plat (3 h) of 126 x10_4/uL. The RBC (3 h) was 640.6 x10_4/ul, the Ret (3 h) was 9.3% and the WBC (3 h) was 96.6 x10_2/uL. It also gave a KIDNEY_L (3 h) of 0.8 g, a KIDNEY_R (3 h) of 0.8 g and a KIDNEY_TOTAL (3 h) of 1.6 g. For the same compound, the LIVER (3 h) was 8.3 g, the A/G (3 h) was 0.9 and the ALP (3 h) was 1477.8 IU/L. For the same compound, the ALT (3 h) was 39.8 IU/L, the AST (3 h) was 72.4 IU/L and the BUN (3 h) was 10.6 mg/dL. For the same compound, the CRE (3 h) was 0.2 mg/dL, the Ca (3 h) was 11.3 mg/dL and the Cl (3 h) was 105.6 meq/L. It also gave a DBIL (3 h) of 0.012 mg/dL, a GLC (3 h) of 179.2 mg/dL and an IP (3 h) of 9.1 mg/dL. It also gave a K (3 h) of 4.3 meq/L, an LDH (3 h) of 100 IU/L and a Na (3 h) of 140.8 meq/L. The PL (3 h) was 150.2 mg/dL, the RALB (3 h) was 2.5 g/dL and the TBIL (3 h) was 0.062 mg/dL. For the same compound, the TC (3 h) was 87.8 mg/dL, the TG (3 h) was 47.6 mg/dL and the TP (3 h) was 5.2 g/dL. The gamma-GTP (3 h) was 1.2 IU/L, the TERMINAL_BW (6 h) was 191.8 g and the APTT (6 h) was 17.3 s. The Bas (6 h) was 0%, the Eos (6 h) was 0.8% and the Fbg (6 h) was 258.8 mg/dL. The Hb (6 h) was 13.6 g/dL, the Ht (6 h) was 41.3% and the Lym (6 h) was 81.4%. The MCH (6 h) was 21.3 pg, the MCHC (6 h) was 33% and the MCV (6 h) was 64.7 fL. It also gave a Mono (6 h) of 2.2%, a Neu (6 h) of 15% and a PT (6 h) of 13.5 s. For the same compound, the Plat (6 h) was 133.4 x10_4/uL, the RBC (6 h) was 639.4 x10_4/ul and the Ret (6 h) was 8.5%. The WBC (6 h) was 82 x10_2/uL, the KIDNEY_L (6 h) was 0.9 g and the KIDNEY_R (6 h) was 0.9 g. The KIDNEY_TOTAL (6 h) was 1.7 g, the LIVER (6 h) was 7.7 g and the A/G (6 h) was 0.9. It also gave an ALP (6 h) of 1476.8 IU/L, an ALT (6 h) of 33.6 IU/L and an AST (6 h) of 72 IU/L. It also gave a BUN (6 h) of 7.8 mg/dL, a CRE (6 h) of 0.2 mg/dL and a Ca (6 h) of 10.7 mg/dL. It also gave a Cl (6 h) of 106.8 meq/L, a DBIL (6 h) of 0.01 mg/dL and a GLC (6 h) of 177.8 mg/dL. For the same compound, the IP (6 h) was 9.4 mg/dL, the K (6 h) was 4.1 meq/L and the LDH (6 h) was 104.2 IU/L. The Na (6 h) was 141.8 meq/L, the PL (6 h) was 138 mg/dL and the RALB (6 h) was 2.5 g/dL. The TBIL (6 h) was 0.068 mg/dL, the TC (6 h) was 75.4 mg/dL and the TG (6 h) was 51.6 mg/dL. It also gave a TP (6 h) of 5.1 g/dL, a gamma-GTP (6 h) of 1 IU/L and a TERMINAL_BW (9 h) of 192.1 g. The APTT (9 h) was 17.5 s, the Bas (9 h) was 0% and the Eos (9 h) was 0.6%. The Fbg (9 h) was 271.8 mg/dL, the Hb (9 h) was 13.2 g/dL and the Ht (9 h) was 40.4%. For the same compound, the Lym (9 h) was 77.4%, the MCH (9 h) was 20.9 pg and the MCHC (9 h) was 32.7%. The MCV (9 h) was 64 fL, the Mono (9 h) was 2% and the Neu (9 h) was 19.4%. The PT (9 h) was 13.7 s, the Plat (9 h) was 112 x10_4/uL and the RBC (9 h) was 631.8 x10_4/ul. For the same compound, the Ret (9 h) was 8.8%, the WBC (9 h) was 96.7 x10_2/uL and the KIDNEY_L (9 h) was 0.9 g. For the same compound, the KIDNEY_R (9 h) was 0.9 g, the KIDNEY_TOTAL (9 h) was 1.7 g and the LIVER (9 h) was 7.6 g. The A/G (9 h) was 0.9, the ALP (9 h) was 1320.2 IU/L and the ALT (9 h) was 40.6 IU/L. For the same compound, the AST (9 h) was 75 IU/L, the BUN (9 h) was 9.2 mg/dL and the CRE (9 h) was 0.2 mg/dL. The Ca (9 h) was 10.6 mg/dL, the Cl (9 h) was 106 meq/L and the DBIL (9 h) was 0.008 mg/dL. For the same compound, the GLC (9 h) was 188.4 mg/dL, the IP (9 h) was 10.4 mg/dL and the K (9 h) was 4.1 meq/L. It also gave an LDH (9 h) of 79.8 IU/L, a Na (9 h) of 141.6 meq/L and a PL (9 h) of 132.4 mg/dL. For the same compound, the RALB (9 h) was 2.4 g/dL, the TBIL (9 h) was 0.062 mg/dL and the TC (9 h) was 71.8 mg/dL. For the same compound, the TG (9 h) was 40.8 mg/dL, the TP (9 h) was 5.1 g/dL and the gamma-GTP (9 h) was 1.2 IU/L. For the same compound, the TERMINAL_BW (24 h) was 207 g, the APTT (24 h) was 20.6 s and the Bas (24 h) was 0%. For the same compound, the Eos (24 h) was 1%, the Fbg (24 h) was 279.8 mg/dL and the Hb (24 h) was 13.2 g/dL. The Ht (24 h) was 40.3%, the Lym (24 h) was 78% and the MCH (24 h) was 21.1 pg. The MCHC (24 h) was 32.9%, the MCV (24 h) was 64.1 fL and the Mono (24 h) was 3%. For the same compound, the Neu (24 h) was 16.6%, the PT (24 h) was 13.1 s and the Plat (24 h) was 116.7 x10_4/uL. It also gave an RBC (24 h) of 628.2 x10_4/ul, a Ret (24 h) of 8.3% and a WBC (24 h) of 87 x10_2/uL. It also gave a KIDNEY_L (24 h) of 0.9 g, a KIDNEY_R (24 h) of 0.9 g and a KIDNEY_TOTAL (24 h) of 1.8 g. It also gave an LIVER (24 h) of 9.5 g, an A/G (24 h) of 0.9 and an ALP (24 h) of 1736 IU/L. For the same compound, the ALT (24 h) was 50 IU/L, the AST (24 h) was 79.4 IU/L and the BUN (24 h) was 13.6 mg/dL. It also gave a CRE (24 h) of 0.2 mg/dL, a Ca (24 h) of 11 mg/dL and a Cl (24 h) of 105.2 meq/L. It also gave a DBIL (24 h) of 0.01 mg/dL, a GLC (24 h) of 178.4 mg/dL and an IP (24 h) of 8.3 mg/dL. It also gave a K (24 h) of 4.2 meq/L, an LDH (24 h) of 109.8 IU/L and a Na (24 h) of 141.2 meq/L. For the same compound, the PL (24 h) was 145.8 mg/dL, the RALB (24 h) was 2.5 g/dL and the TBIL (24 h) was 0.054 mg/dL. For the same compound, the TC (24 h) was 77.4 mg/dL, the TG (24 h) was 80.8 mg/dL and the TP (24 h) was 5.3 g/dL. It also gave a gamma-GTP (24 h) of 1 IU/L.
